Assay results published in ChEMBL document CHEMBL1909046, “DrugMatrix in vitro pharmacology data”.

Key:
[1] = target: Beta-1 adrenergic receptor (Homo sapiens, UniProt P08588); assay: DRUGMATRIX: Adrenergic beta1 radioligand binding (ligand: [125I] Cyanopindolol); format: cell membranes, CHO-K1, Membrane; conditions: cho-k1; Not Active = under 50% inhibition at 10 µM
Adenosine receptor A3 = target: T1, Adenosine receptor A3 (Homo sapiens, UniProt P0DMS8); format: cell membranes, CHO-K1, Membrane;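 also: radioligand binding assay with AB-MECA serving as the labeled ligand; in other assays of this panel Not Active means under 50% inhibition at 10 µM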
T1 sequence (P0DMS8 whole entry): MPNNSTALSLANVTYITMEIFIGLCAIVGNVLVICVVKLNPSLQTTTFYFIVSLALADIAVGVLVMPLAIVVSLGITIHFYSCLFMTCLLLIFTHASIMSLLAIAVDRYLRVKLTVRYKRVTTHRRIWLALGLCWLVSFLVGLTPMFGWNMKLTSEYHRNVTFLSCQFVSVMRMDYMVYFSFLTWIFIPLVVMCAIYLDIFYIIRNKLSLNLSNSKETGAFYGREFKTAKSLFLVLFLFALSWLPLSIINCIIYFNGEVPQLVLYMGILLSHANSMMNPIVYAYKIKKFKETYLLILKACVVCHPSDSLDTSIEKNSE

[2] = target: Vascular endothelial growth factor receptor 1 (Homo sapiens, UniProt P17948); assay: biochemical; format: cell-based, HUVEC; conditions: huvec; also: in other assays of this panel Not Active means under 50% inhibition at 10 µM
Vascular endothelial growth factor receptor 1, sequence (P17948 whole entry): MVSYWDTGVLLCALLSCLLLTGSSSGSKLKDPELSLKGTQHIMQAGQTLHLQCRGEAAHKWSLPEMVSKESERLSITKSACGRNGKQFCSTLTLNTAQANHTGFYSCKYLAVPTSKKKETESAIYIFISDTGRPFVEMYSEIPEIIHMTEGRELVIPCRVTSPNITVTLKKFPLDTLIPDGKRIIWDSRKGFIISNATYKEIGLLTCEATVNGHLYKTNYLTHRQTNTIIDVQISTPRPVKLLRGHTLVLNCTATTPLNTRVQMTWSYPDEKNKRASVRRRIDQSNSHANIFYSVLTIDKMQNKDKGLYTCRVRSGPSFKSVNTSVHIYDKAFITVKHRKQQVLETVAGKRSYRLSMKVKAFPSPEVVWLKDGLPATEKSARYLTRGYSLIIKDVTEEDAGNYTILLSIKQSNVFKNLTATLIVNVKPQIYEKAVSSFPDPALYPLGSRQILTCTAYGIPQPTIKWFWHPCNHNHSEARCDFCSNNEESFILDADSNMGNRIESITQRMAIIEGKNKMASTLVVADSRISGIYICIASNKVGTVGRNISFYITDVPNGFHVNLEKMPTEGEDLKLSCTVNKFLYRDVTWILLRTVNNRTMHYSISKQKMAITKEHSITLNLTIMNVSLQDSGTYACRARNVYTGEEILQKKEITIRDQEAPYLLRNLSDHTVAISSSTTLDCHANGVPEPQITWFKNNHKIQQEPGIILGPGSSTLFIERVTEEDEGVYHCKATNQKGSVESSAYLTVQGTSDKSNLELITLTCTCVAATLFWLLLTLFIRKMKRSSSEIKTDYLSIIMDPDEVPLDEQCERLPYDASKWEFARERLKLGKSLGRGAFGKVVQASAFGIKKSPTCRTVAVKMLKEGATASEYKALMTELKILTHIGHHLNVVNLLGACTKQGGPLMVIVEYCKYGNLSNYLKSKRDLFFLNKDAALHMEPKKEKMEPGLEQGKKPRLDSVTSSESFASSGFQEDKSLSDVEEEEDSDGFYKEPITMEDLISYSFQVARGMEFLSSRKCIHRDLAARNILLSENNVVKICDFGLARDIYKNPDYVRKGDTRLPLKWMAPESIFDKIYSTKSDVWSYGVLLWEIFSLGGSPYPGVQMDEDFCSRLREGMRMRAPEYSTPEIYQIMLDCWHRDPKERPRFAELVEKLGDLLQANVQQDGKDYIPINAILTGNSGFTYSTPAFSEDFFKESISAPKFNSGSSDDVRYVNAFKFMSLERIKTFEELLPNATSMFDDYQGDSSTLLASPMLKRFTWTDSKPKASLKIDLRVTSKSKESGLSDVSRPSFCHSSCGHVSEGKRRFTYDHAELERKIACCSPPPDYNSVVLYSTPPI

[3] = target: Protein kinase C alpha type (Homo sapiens, UniProt P17252); format: cell-based; conditions: sf9;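 also: inhibition of PKCalpha kinase activity measured in an enzyme assay with histone as the phosphorylation substrate; in other assays of this panel Not Active means under 50% inhibition at 10 µM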
Melanocortin receptor 4 = Melanocortin receptor 4 (Homo sapiens, UniProt P32245); format: cell membranes, HEK293, Membrane; conditions: hek293; also: in other assays of this panel Not Active means under 50% inhibition at 10 µM
Melanocortin receptor 4, sequence (P32245 whole entry): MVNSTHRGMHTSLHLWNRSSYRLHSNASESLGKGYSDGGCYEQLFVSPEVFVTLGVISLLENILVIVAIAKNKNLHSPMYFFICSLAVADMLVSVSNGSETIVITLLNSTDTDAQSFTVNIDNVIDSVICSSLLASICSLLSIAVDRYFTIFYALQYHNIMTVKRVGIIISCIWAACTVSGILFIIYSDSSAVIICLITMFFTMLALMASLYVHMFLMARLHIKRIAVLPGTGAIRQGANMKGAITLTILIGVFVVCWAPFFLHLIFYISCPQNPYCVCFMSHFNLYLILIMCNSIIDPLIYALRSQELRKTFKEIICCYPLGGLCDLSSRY

Beta-1 adrenergic receptor, sequence (P08588 whole entry): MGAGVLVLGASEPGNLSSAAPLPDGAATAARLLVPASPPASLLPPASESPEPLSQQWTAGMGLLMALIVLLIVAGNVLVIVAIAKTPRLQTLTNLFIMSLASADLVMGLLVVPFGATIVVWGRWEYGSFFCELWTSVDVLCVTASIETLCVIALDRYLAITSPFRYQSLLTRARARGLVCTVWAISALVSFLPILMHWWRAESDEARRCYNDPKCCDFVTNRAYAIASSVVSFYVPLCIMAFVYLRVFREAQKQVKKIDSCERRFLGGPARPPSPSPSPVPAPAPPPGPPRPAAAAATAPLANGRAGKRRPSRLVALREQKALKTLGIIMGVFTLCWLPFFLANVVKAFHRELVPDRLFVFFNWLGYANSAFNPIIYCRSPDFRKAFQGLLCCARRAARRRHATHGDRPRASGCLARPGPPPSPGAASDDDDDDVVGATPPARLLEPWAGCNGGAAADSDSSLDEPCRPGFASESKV

SMILES	IC50 [1]	IC50 (Adenosine receptor A3; cho-k1)	IC50 [2]	IC50 [3]	IC50 (Melanocortin receptor 4)	IC50 (Adenosine receptor A3; read-out: IC50) [nM]	Ki (Adenosine receptor A3; read-out: Ki) [nM]	Ki [3]
O=C(c1ccccc1C(F)(F)F)N1CCC(Cc2ccccc2)CC1	Not Active	Not Active	Not Active	Not Active	Not Active	–	–	–
O=C/C=C/c1ccccc1	Not Active	Not Active	Not Active	Not Active	Not Active	–	–	–
Nc1ccc2c3c(cccc13)C(=O)NC2=O	Not Active	Not Active	Not Active	Not Active	Not Active	–	–	–
COc1ccc(C(=O)N2CCCC2=O)cc1	Not Active	Not Active	Not Active	Not Active	Not Active	–	–	–
O=c1cnn([C@@H]2O[C@H](CO)[C@@H](O)[C@H]2O)c(=O)[nH]1 [6-AZAURIDINE]	Not Active	Not Active	Not Active	Not Active	Not Active	–	–	–
CC[C@H](C)[C@H]1O[C@]2(C=C[C@@H]1C)C[C@@H]1C[C@@H](C/C=C(\C)[C@@H](O[C@H]3C[C@H](OC)[C@@H](O[C@H]4C[C@H](OC)[C@@H](O)[C@H](C)O4)[C@H](C)O3)[C@@H](C)/C=C/C=C3\CO[C@@H]4[C@H](O)C(C)=C[C@@H](C(=O)O1)[C@]34O)O2.CO[C@H]1C[C@H](O[C@H]2[C@H](C)O[C@@H](O[C@@H]3/C(C)=C/C[C@@H]4C[C@@H](C[C@]5(C=C[C@H](C)[C@@H](C(C)C)O5)O4)OC(=O)[C@@H]4C=C(C)[C@@H](O)[C@H]5OC/C(=C\C=C\[C@@H]3C)[C@]54O)C[C@@H]2OC)O[C@@H](C)[C@@H]1O [ABAMECTIN]	Not Active	–	Not Active	Not Active	Not Active	870	492	–
NCCCC(O)(P(=O)(O)O)P(=O)(O)O [ALENDRONIC ACID]	Not Active	Not Active	Not Active	Not Active	Not Active	–	–	–
Cc1nnc2n1-c1ccc(Cl)cc1C(c1ccccc1)=NC2 [ALPRAZOLAM]	Not Active	Not Active	Not Active	–	Not Active	–	–	Not Active
Cn1c(=O)c2[nH]cnc2n(C)c1=O.Cn1c(=O)c2[nH]cnc2n(C)c1=O.NCCN [AMINOPHYLLINE]	Not Active	Not Active	Not Active	Not Active	Not Active	–	–	–
CCC1(CCC(C)C)C(=O)NC(=O)NC1=O [AMOBARBITAL]	Not Active	Not Active	Not Active	Not Active	Not Active	–	–	–
CC1(C)S[C@@H]2[C@H](NC(=O)[C@H](N)c3ccccc3)C(=O)N2[C@H]1C(=O)O [AMPICILLIN]	Not Active	Not Active	Not Active	Not Active	Not Active	–	–	–
COc1ccc(C2C(=O)c3ccccc3C2=O)cc1 [ANISINDIONE]	Not Active	Not Active	Not Active	Not Active	Not Active	–	–	–
O=C1O[C@H]([C@@H](O)CO)C(O)=C1O [ASCORBIC ACID]	Not Active	Not Active	Not Active	Not Active	Not Active	–	–	–
CN1[C@@H]2CC[C@H]1C[C@@H](OC(=O)C(CO)c1ccccc1)C2 (some centres undefined) [ATROPINE]	Not Active	Not Active	Not Active	Not Active	Not Active	–	–	–
CC(C(=O)O)c1ccc2oc(-c3ccc(Cl)cc3)nc2c1 (centres undefined) [BENOXAPROFEN]	Not Active	Not Active	Not Active	Not Active	Not Active	–	–	–
CC(C)NCC(O)COc1cccc2[nH]ccc12 (centres undefined) [PINDOLOL]	–	Not Active	Not Active	Not Active	Not Active	–	–	–
CCCNCC(O)COc1ccccc1C(=O)CCc1ccccc1 (centres undefined) [PROPAFENONE]	–	Not Active	Not Active	Not Active	Not Active	–	–	–
